Data: US8987304B2, “Antituberculous composition comprising oxazole compounds” (priority 2005, dated 2015)

Legend:
[1] = system: CYP1A1/2; experiment: ethoxyresorufin deethylation activity in human hepatic microsome
Procedure: (§1) 4-2. Effect of the Oxazole Compound (I) on the Enzymatic Activity of Each Molecular Species of Cytochrome P450 (CYP)
(§2) Basic reaction composition (0.5 ml) was consisting of microsome protein 0.2-1 mg/ml, 100 mM phosphate buffer (pH 7.4), 0.1 mM EDTA, NADPH generation system (2.5 mM β-NADP, 25 mM glucose-6-phosphate, 2 units glucose-6-phosphate dehydrogenase and 10 mM magnesium chloride), with or without each substrate and inhibitor, and the reaction was performed at 37° C. for 10-60 minutes. Each substrate and its concentration used were 7-ethoxyresorufln (0.5 μM), coumarin (2 μM), 7-benzyloxyresorufin (1.5 μM), tolbutamide (400 μM), S-mephenyloin (100 μM), bufuralol (20 μM), chlorzoxazone (100 μM), testosterone (100 μM) and nifedipine (50 μM).
(§3) Generated products after the metabolic response were measured by using high performance liquid chromatography after extraction.

[2] = system: clinical isolates of tubercle bacillus, TBT-9 and TBT-14; experiment: In vitro combined effect: MIC on 7H11 agar plates and FIC index; format: cell-based; details: 37° C., 2 weeks; for MIC: Bacillus, 336 h, each agent alone
Procedure: In Vitro Experiment on the Combined Effect of an Oxazole Compound (I) and Another Agent
A suspension of tubercle bacillus was prepared at about 10^6 CFU/ml (for clinical isolates of tubercle bacillus, TBT-9 and TBT-14). About 10 μl aliquots thereof were inoculated on respective plates by using a multipoint inoculator.

[3] = system: intracellular parasitic tubercle bacillus (M. tuberculosis H37Rv) in THP-1 cells; experiment: Effect on intracellular parasitic tubercle bacillus in THP-1 cells; format: cell-based
[4] = system: hepatic microsomal enzyme; experiment: In vitro metabolism, human hepatic microsome; format: in vitro ADME; details: 100 μM, microsome protein 1 mg/ml, 37° C., 2 hours
Procedure: (§4) 4-1. In Vitro Metabolism of Oxazole Compound (I)
(§5) Studies on in vitro metabolism of oxazole compound (I) (compound (A-R)) were performed using hepatic microsomal enzyme of human and various animals (mouse, rat, dog, rabbit and monkey). Human microsome was obtained from Attached Primate Research Institute, HAB Discussion Group (Chiba, Japan). […] The reaction was terminated by adding organic solvent (acetonitrile or ethyl acetate) and generated metabolites were extracted. The extracted metabolites were detected by using high performance liquid chromatography and liquid chromatograph electrospray ionization tandem mass spectrometry to confirm amount of generation.

[5] = system: hepatic microsomal enzyme; experiment: In vitro metabolism, mouse hepatic microsome; format: in vitro ADME; details: 100 μM, microsome protein 1 mg/ml, 37° C., 2 hours
Procedure: as §4, §5

[6] = system: hepatic microsomal enzyme; experiment: In vitro metabolism, rat hepatic microsome; format: in vitro ADME; details: 100 μM, microsome protein 1 mg/ml, 37° C., 2 hours
Procedure: as §4, §5

[7] = system: hepatic microsomal enzyme; experiment: In vitro metabolism, dog hepatic microsome; format: in vitro ADME; details: 100 μM, microsome protein 1 mg/ml, 37° C., 2 hours
Procedure: as §4, §5

[8] = system: hepatic microsomal enzyme; experiment: In vitro metabolism, rabbit hepatic microsome; format: in vitro ADME; details: 100 μM, microsome protein 1 mg/ml, 37° C., 2 hours
Procedure: as §4, §5

[9] = system: hepatic microsomal enzyme; experiment: In vitro metabolism, monkey hepatic microsome; format: in vitro ADME; details: 100 μM, microsome protein 1 mg/ml, 37° C., 2 hours
Procedure: as §4, §5

[10] = target: T1, CYP2A6 (Homo sapiens, UniProt P11509); experiment: coumarin hydroxylation activity in human hepatic microsome
T1 sequence (P11509 1-494): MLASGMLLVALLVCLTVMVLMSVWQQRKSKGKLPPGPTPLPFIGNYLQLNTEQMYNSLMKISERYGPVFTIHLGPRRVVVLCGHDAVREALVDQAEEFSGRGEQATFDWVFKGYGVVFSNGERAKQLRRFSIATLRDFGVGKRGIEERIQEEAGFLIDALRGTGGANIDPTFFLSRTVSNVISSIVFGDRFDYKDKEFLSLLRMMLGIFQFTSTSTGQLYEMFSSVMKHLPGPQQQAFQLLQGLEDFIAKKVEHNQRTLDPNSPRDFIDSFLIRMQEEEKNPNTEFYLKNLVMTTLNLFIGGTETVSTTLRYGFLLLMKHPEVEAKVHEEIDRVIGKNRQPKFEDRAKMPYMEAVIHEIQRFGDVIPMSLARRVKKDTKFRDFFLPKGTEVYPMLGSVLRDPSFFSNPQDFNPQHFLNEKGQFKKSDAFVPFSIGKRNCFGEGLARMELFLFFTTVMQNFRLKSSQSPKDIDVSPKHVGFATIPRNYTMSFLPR
Procedure: as §1, §2, §3

[11] = target: T2, CYP2B6 (Homo sapiens, UniProt P20813); experiment: 7-benzyloxyresorufin debenzylation activity in human hepatic microsome; details: microsomes, pH 7.4
T2 sequence (P20813 1-491): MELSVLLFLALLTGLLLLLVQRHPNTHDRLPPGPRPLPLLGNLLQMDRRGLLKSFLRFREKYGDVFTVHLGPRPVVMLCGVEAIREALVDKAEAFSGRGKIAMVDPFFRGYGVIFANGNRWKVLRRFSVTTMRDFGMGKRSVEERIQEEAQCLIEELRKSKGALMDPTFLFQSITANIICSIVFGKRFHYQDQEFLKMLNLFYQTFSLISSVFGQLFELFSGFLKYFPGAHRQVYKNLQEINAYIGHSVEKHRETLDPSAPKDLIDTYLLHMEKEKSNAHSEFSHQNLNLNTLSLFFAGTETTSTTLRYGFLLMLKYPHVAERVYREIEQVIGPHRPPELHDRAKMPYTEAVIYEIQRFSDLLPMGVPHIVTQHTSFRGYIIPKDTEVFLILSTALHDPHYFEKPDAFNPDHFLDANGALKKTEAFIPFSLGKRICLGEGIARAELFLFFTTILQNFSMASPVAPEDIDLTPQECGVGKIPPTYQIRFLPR
Procedure: as §1, §2, §3

[12] = system: CYP2C8/9; experiment: tolbutamide hydroxylation activity in human hepatic microsome
Procedure: as §1, §2, §3

[13] = target: CYP2C19 (Homo sapiens, UniProt P33261); experiment: S-mephenytoin hydroxylation activity in human hepatic microsome; details: liver microsomes, pH 7.4, probe S-mephenytoin (100 μM)
Sequence of CYP2C19 (P33261 whole entry): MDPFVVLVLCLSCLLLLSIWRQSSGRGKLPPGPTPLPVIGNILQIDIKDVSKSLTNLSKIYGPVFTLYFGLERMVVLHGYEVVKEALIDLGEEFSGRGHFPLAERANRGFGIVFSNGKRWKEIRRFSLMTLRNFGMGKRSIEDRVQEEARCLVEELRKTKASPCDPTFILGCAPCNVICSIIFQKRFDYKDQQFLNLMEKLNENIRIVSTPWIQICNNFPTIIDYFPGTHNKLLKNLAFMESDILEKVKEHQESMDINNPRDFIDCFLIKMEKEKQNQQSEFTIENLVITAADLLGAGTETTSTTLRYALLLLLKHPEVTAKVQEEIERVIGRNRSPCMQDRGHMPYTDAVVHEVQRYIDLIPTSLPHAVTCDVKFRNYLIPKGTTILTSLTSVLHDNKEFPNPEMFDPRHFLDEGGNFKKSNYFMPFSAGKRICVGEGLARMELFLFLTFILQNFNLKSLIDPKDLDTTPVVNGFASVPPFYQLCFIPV
Procedure: as §1, §2, §3

[14] = target: CYP2D6 (Homo sapiens, UniProt P10635); experiment: bufuralol hydroxylation activity in human hepatic microsome; details: liver microsomes, pH 7.4, probe bufuralol (20 μM)
Sequence of CYP2D6 (P10635 whole entry): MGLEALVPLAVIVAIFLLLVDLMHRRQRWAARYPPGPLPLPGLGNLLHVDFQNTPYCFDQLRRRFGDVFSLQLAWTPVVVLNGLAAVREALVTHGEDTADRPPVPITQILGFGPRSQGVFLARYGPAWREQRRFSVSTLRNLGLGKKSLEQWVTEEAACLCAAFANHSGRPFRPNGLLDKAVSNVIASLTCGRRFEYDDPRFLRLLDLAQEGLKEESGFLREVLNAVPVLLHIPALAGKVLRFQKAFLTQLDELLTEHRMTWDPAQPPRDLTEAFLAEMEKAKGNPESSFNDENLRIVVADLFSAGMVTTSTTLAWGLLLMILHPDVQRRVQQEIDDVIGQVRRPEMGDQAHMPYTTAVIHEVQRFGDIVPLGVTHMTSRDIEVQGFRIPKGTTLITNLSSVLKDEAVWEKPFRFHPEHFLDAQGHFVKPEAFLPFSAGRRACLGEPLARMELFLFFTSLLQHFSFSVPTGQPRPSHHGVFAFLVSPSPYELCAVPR
Procedure: as §1, §2, §3

[15] = system: each CYP enzyme (CYP1A/2, CYP2A6, CYP2B6, CYP2C8/9, CYP2C19, CYP2D6, CYP2E1 and CYP3A4); experiment: Summary: effect on each CYP enzyme activity in human hepatic microsome; details: up to 100 μM
Procedure: as §1, §2, §3

[16] = system: Experimental mouse tuberculosis model; experiment: In vivo experiments for intermittent administration, experimental mouse tuberculosis model; details: three times a week, twice a week or once a week; alone or in combination with conventional antituberculous drugs
Source text: In Vivo Experiments for Intermittent Administration

[17] = target: CYP2E1 (Homo sapiens, UniProt P05181); experiment: chlorozoxazone hydroxylation activity in human hepatic microsome; details: 100 μM; CYP2E1, chlorozoxazone (100 μM)
Sequence of CYP2E1 (P05181 whole entry): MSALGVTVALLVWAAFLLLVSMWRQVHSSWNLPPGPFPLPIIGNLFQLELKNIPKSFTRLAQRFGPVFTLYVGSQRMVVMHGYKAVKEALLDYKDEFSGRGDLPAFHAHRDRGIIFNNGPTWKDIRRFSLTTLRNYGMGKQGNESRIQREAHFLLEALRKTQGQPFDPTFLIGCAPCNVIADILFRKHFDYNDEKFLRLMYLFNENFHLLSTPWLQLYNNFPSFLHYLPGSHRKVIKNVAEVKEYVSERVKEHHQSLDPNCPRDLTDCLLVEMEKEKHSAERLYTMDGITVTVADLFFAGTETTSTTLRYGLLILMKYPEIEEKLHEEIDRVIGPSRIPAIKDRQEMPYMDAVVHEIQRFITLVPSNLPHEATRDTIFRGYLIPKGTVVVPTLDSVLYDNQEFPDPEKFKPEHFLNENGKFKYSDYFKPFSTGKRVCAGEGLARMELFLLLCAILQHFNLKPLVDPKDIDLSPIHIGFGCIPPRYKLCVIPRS
Procedure: as §1, §2, §3

[18] = combination Compound (A-R) & EB
[19] = combination Compound (A-R) & RFP
[20] = human, liver microsomes, pH 7.4, probe coumarin (2 μM), coumarin hydroxylation
[21] = liver microsomes, pH 7.4, probe tolbutamide (400 μM), hydroxylation

Structure (SMILES): O=c1cc(-c2ccccc2)oc2c1ccc1ccccc12 [7,8-benzoflavone, reference compound]
- Relative activity (%) for control activity ([1]; 100 μM, CYP1A1/2, 7-ethoxyresorufin (0.5 μM)): 3.8%

Structure (SMILES): C[C@]1(COc2ccc(N3CCC(Oc4ccc(OC(F)(F)F)cc4)CC3)cc2)Cn2cc([N+](=O)[O-])nc2O1 [Compound (A-R), (R)-2-methyl-6-nitro-2-{4-[4-(4-trifluoromethoxyphenoxy)piperidin-1-yl]phenoxymethyl}-2,3-dihydroimidazo[2,1-b]oxazole]
- MIC ([2]; line Compound (A-R) & EB): 0.012 µg/mL
- MIC ([2]; line Compound (A-R) & RFP): 0.024 µg/mL
- MIC in combination [2, 18]: 0.003 µg/mL
- MIC in combination [2, 19]: 0.006 µg/mL
- effect in short term action ([3]; action for 2 hours): strong effect
- effect against intracellular parasitic tubercle bacillus at the lowest test dose ([3]; compound (A-R) 0.1 μg/ml compared with RFP 3 μg/ml): equivalent effect of the maximum concentration 3 μg/ml of RFP
- Log reduction of bacterial counts compared with time 0 hour (FIG. 2), comparison among antituberculous drugs ([3]; test substance for 2 or 4 hours, bacteria collected at 72 hours): stronger effect
- generated metabolites [4]: almost no generated metabolites
- generated metabolites [5]: almost no generated metabolites
- generated metabolites [6]: almost no generated metabolites
- generated metabolites [7]: almost no generated metabolites
- generated metabolites [8]: almost no generated metabolites
- generated metabolites [9]: almost no generated metabolites
- activity at 1 μM ([1]; human, microsomes, pH 7.4): 99.8%
- activity at 10 μM ([1]; human, microsomes, pH 7.4): 98.4%
- activity at 30 μM ([1]; human, microsomes, pH 7.4): 102%
- activity at 100 μM ([1]; human, microsomes, pH 7.4): 98.6%
- activity at 1 μM [10, 20]: 103%
- activity at 3 μM [10, 20]: 102%
- activity at 10 μM [10, 20]: 103%
- activity at 1 μM [11]: 111%
- activity at 3 μM [11]: 109%
- activity at 10 μM [11]: 118%
- activity at 30 μM [11]: 113%
- activity at 100 μM [11]: 122%
- activity at 1 μM ([12]; microsomes, pH 7.4): 107%
- activity at 3 μM ([12]; microsomes, pH 7.4): 111%
- activity at 10 μM ([12]; microsomes, pH 7.4): 107%
- activity at 30 μM ([12]; microsomes, pH 7.4): 108%
- activity at 100 μM ([12]; microsomes, pH 7.4): 108%
- activity at 3 μM [13]: 109%
- activity at 10 μM [13]: 113%
- activity at 1 μM [14]: 102%
- activity at 3 μM [14]: 102%
- activity at 30 μM [14]: 103%
- inhibitory action and stimulation action against each CYP enzyme activity [15]: did not exhibit inhibitory action and stimulation action
- therapeutic effect of intermittent administration compared with once a day administration [16]: equivalent effect

Structure (SMILES): CC[C@@H](CO)NCCN[C@@H](CC)CO [EB, ethambutol, reference compound]
- MIC ([2]; line Compound (A-R) & EB): 1.56 µg/mL
- MIC in combination [2, 18]: 0.2 µg/mL

Structure (SMILES): CO[C@H]1/C=C/O[C@@]2(C)Oc3c(C)c(O)c4c(O)c(c(/C=N/N5CCN(C)CC5)c(O)c4c3C2=O)NC(=O)/C(C)=C\C=C\[C@H](C)[C@H](O)[C@@H](C)[C@@H](O)[C@@H](C)[C@H](OC(C)=O)[C@@H]1C [RFP, rifampicin, reference compound]
- MIC in combination [2, 19]: 0.05 µg/mL

Structure (SMILES): CCN(CC)C(=S)S [diethyldithiocarbamine, reference compound]
- Relative activity (%) for control activity ([10]; 100 μM, CYP2A6, coumarin (2 μM)): 38.2%
- Relative activity (%) for control activity [17]: 55.0%

Structure (SMILES): Cc1nc2c([nH]1)c(=O)n(C)c(=O)n2Cc1ccco1 [furafylline, reference compound]
- activity at 100 μM ([1]; human, microsomes, pH 7.4): 32.3%

Structure (SMILES): O=c1c(O)c(-c2ccc(O)c(O)c2)oc2cc(O)cc(O)c12 [quercetin, reference compound]
- activity at 100 μM [12, 21]: 30.6%

Structure (SMILES): Nc1ccc(S(=O)(=O)Nc2ccnn2-c2ccccc2)cc1 [sulfaphenazole, reference compound]
- activity at 100 μM [12, 21]: 25.5%
